Results: patent US20250186437A1, “CARBOLINE COMPOUNDS AND USE THEREOF” (PTC Therapeutics, Inc., priority 2021, published 2025)
pIC50: −log10 of the molar value.

How the values were obtained:
[1] = system: MOLM-13 cells; assay: MOLM-13 Cell Proliferation Assay (indicator of DHODH inhibition); assay type: cell-based; settings: Homo sapiens, 72 Hours of culture, CellTiter-Glo, no uridine
Summary of the method: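 Low-passage MOLM-13 cells (10^4/well) in RPMI 1640 + 10% FBS exposed to compound (0.5% DMSO final) for 72 h at 37 °C, 5% CO2. Viability read by CellTiter-Glo luminescence; growth reflects de novo pyrimidine synthesis dependent on DHODH.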

[2] = system: MOLM-13 cells; assay: MOLM-13 Uridine Rescue Assay; assay type: cell-based; settings: Homo sapiens; MOLM-13 cell proliferation with 100 μM Uridine added, 72 Hours of culture
Method: The following assay was conducted to measure proliferation of MOLM-13 cells in the presence of each compound studied. This assay was included as an indicator of DHODH inhibition, as growth of MOLM-13 cells is known to depend on synthesis of pyrimidines using the de novo pathway, which can be blocked by inhibition of DHODH. • 1. MOLM-13 cells were cultured in RPMI 1640 medium+10% Fetal Bovine Serum (FBS). Only low passage cells (<20) were used for the compound tests • 2. On day 1, Log-phase growing Molm-13 Cells were counted and diluted to 10^5 cells/mL in RPMI 1640 medium+10% FBS • 3. 100 μL of diluted MOLM-13 cells in 96 well white plates were seeded, for a final density of 10^4 cells/well. • 4. 0.5 μL of pre-diluted 200× compounds or DMSO control was added to each well. The final DMSO concentration was 0.5%. • 5. After 72 Hours of culture at 37° C., 5% CO2, the plates were taken out and cooled to RT, then 50 μL CellTiter-Glo® (Promega) was added, and the composition was mixed at RT for 10 minutes. • 6. The plates were then read by ViewLux (Speed-fast, Gain-High, Bining-1X, 5 seconds).
Several compounds were also tested in a Uridine rescue assay. In the Uridine rescue assay, using the procedure in Example 1 above, an additional plate of MOLM-13 cell cultures was prepared, to which 100 μM of Uridine was added in step 3 of the process.

| SMILES | pIC50 [1] | pIC50 [2] |
| --- | --- | --- |
| Cc1ccc(C2c3[nH]c4ccc(Cl)cc4c3CCN2c2nc(C)cc(C(F)(F)F)n2)cc1 (stereo not drawn) [Compound 361, 6-chloro-1-(4-methylphenyl)-2-[4-methyl-6-(trifluoromethyl)pyrimidin-2-yl]-2,3,4,9-tetrahydro-1H-pyrido[3,4-b]indole] | 8.74 | 4.66 |
| Cc1ccc(C2c3[nH]c4ccc(N(C)C)cc4c3CCN2c2nccc(C(F)(F)F)n2)c(F)c1F (stereo not drawn) [Compound 330, 1-(2,3-difluoro-4-methylphenyl)-N,N-dimethyl-2-[4-(trifluoromethyl)pyrimidin-2-yl]-2,3,4,9-tetrahydro-1H-pyrido[3,4-b]indol-6-amine] | 7.95 | 4.94 |
| CN1CCN(c2ncc(C3c4[nH]c5ccc(Cl)cc5c4CCN3c3nccc(C(F)(F)F)n3)cn2)CC1 (stereo not drawn) [Compound 369, 6-chloro-1-[2-(4-methylpiperazin-1-yl)pyrimidin-5-yl]-2-[4-(trifluoromethyl)pyrimidin-2-yl]-2,3,4,9-tetrahydro-1H-pyrido[3,4-b]indole] | 8.35 | 5.30 |
| N#Cc1ccnc(N2CCc3c([nH]c4ccc(Cl)cc34)C2c2ccc(N3CCOCC3)nc2)n1 (stereo not drawn) [Compound 356, 2-{6-chloro-1-[6-(morpholin-4-yl)pyridin-3-yl]-1,3,4,9-tetrahydro-2H-pyrido[3,4-b]indol-2-yl}pyrimidine-4-carbonitrile] | 8.34 | 5.16 |
| Cc1nc(C)nc(N2CCc3c([nH]c4ccc(Cl)cc34)C2c2ccc(C)c(F)c2F)n1 (stereo not drawn) [Compound 253, 6-chloro-1-(2,3-difluoro-4-methylphenyl)-2-(4,6-dimethyl-1,3,5-triazin-2-yl)-2,3,4,9-tetrahydro-1H-pyrido[3,4-b]indole] | 8.72 | 5.18 |
| N#Cc1ccc(C2c3[nH]c4ccc(Cl)cc4c3CCN2c2nccc(C(F)(F)F)n2)c(F)c1 (stereo not drawn) [Compound 255, 4-{6-chloro-2-[4-(trifluoromethyl)pyrimidin-2-yl]-2,3,4,9-tetrahydro-1H-pyrido[3,4-b]indol-1-yl}-3-fluorobenzonitrile] | 8.66 | 4.81 |
| Cc1ccc(C2c3[nH]c4ccc([N+](=O)[O-])cc4c3CCN2c2nccc(C(F)(F)F)n2)cc1 (stereo not drawn) [Compound 265, 1-(4-methylphenyl)-6-nitro-2-[4-(trifluoromethyl)pyrimidin-2-yl]-2,3,4,9-tetrahydro-1H-pyrido[3,4-b]indole] | 8.52 | 4.97 |
| N#Cc1ccc(C2c3[nH]c4ccc(Cl)cc4c3CCN2c2nccc(C(F)(F)F)n2)c(F)c1F (stereo not drawn) [Compound 278, 4-{6-chloro-2-[4-(trifluoromethyl)pyrimidin-2-yl]-2,3,4,9-tetrahydro-1H-pyrido[3,4-b]indol-1-yl}-2,3-difluorobenzonitrile] | 8.77 | 5.32 |
| Cc1ccc(C2c3[nH]c4cc(F)c(Cl)cc4c3CCN2c2nccc(C(F)(F)F)n2)cc1 (stereo not drawn) [Compound 72, 6-chloro-7-fluoro-1-(4-methylphenyl)-2-[4-(trifluoromethyl)pyrimidin-2-yl]-2,3,4,9-tetrahydro-1H-pyrido[3,4-b]indole] | 8.46 | 4.73 |
| Cc1nc(C)nc(N2CCc3c([nH]c4cc(N)c(Cl)cc34)C2c2cnc(N3CCOCC3)nc2)n1 (stereo not drawn) [Compound 320, 6-chloro-2-(4,6-dimethyl-1,3,5-triazin-2-yl)-1-[2-(morpholin-4-yl)pyrimidin-5-yl]-2,3,4,9-tetrahydro-1H-pyrido[3,4-b]indol-7-amine] | 7.93 | 5.01 |
| FC(F)(F)c1ccnc(N2CCc3c([nH]c4ccc(-n5nccn5)cc34)C2c2ccc(N3CCOCC3)nc2)n1 (stereo not drawn) [Compound 316, 1-[6-(morpholin-4-yl)pyridin-3-yl]-6-(2H-1,2,3-triazol-2-yl)-2-[4-(trifluoromethyl)pyrimidin-2-yl]-2,3,4,9-tetrahydro-1H-pyrido[3,4-b]indole] | 8.42 | 4.97 |
| Cc1ccc2[nH]c3c(c2c1)CCN(c1nccc(C(F)(F)F)n1)C3c1ccc(C)c(F)c1F (stereo not drawn) [Compound 271, 1-(2,3-difluoro-4-methylphenyl)-6-methyl-2-[4-(trifluoromethyl)pyrimidin-2-yl]-2,3,4,9-tetrahydro-1H-pyrido[3,4-b]indole] | 8.43 | 4.64 |
| Cc1cc(C(F)(F)F)nc(N2CCc3c([nH]c4ccc(Cl)cc34)C2c2cnc(N3CCOCC3)nc2)n1 (stereo not drawn) [Compound 374, 6-chloro-2-[4-methyl-6-(trifluoromethyl)pyrimidin-2-yl]-1-[2-(morpholin-4-yl)pyrimidin-5-yl]-2,3,4,9-tetrahydro-1H-pyrido[3,4-b]indole] | 8.80 | 5.05 |
| Cc1ccc([C@H]2c3[nH]c4ccc(Cl)cc4c3CCN2c2ncnc(C(F)(F)F)n2)cc1 [Compound 418, (1S)-6-chloro-1-(4-methylphenyl)-2-[4-(trifluoromethyl)-1,3,5-triazin-2-yl]-2,3,4,9-tetrahydro-1H-pyrido[3,4-b]indole] | 8.70 | 4.83 |

Compounds with a higher pIC50 [1], results first:

| pIC50 [1] | pIC50 [2] | SMILES |
| --- | --- | --- |
| 8.96 | 4.76 | Cc1ccc(C2c3[nH]c4ccc(Cl)c(F)c4c3CCN2c2nccc(C(F)(F)F)n2)c(F)c1F (stereo not drawn) [Compound 197, 6-chloro-1-(2,3-difluoro-4-methylphenyl)-5-fluoro-2-[4-(trifluoromethyl)pyrimidin-2-yl]-2,3,4,9-tetrahydro-1H-pyrido[3,4-b]indole] |
| 9.30 | 5.07 | Cc1ccc(C2c3[nH]c4c(N)cc(Cl)cc4c3CCN2c2nccc(C(F)(F)F)n2)c(F)c1F (stereo not drawn) [Compound 248, 6-chloro-1-(2,3-difluoro-4-methylphenyl)-2-[4-(trifluoromethyl)pyrimidin-2-yl]-2,3,4,9-tetrahydro-1H-pyrido[3,4-b]indol-8-amine] |
| 9.22 | 4.83 | Fc1cc2[nH]c3c(c2cc1Cl)CCN(c1nc(C(F)(F)F)cc(C(F)(F)F)n1)C3c1cccc(F)c1F (stereo not drawn) [Compound 157, 2-[4,6-bis(trifluoromethyl)pyrimidin-2-yl]-6-chloro-1-(2,3-difluorophenyl)-7-fluoro-2,3,4,9-tetrahydro-1H-pyrido[3,4-b]indole] |
| 8.96 | 5.56 | Cc1nc(C)nc(N2CCc3c([nH]c4ccc(Cl)cc34)[C@@H]2c2ccc(C)c(F)c2F)n1 [Compound 347, (1S)-6-chloro-1-(2,3-difluoro-4-methylphenyl)-2-(4,6-dimethyl-1,3,5-triazin-2-yl)-2,3,4,9-tetrahydro-1H-pyrido[3,4-b]indole] |
| 9.70 | 4.90 | FC(F)(F)c1cc(C(F)(F)F)nc(N2CCc3c([nH]c4ccc(Cl)cc34)[C@@H]2c2ccc(N3CCOCC3)nc2)n1 [Compound 409, (1S)-2-[4,6-bis(trifluoromethyl)pyrimidin-2-yl]-6-chloro-1-[6-(morpholin-4-yl)pyridin-3-yl]-2,3,4,9-tetrahydro-1H-pyrido[3,4-b]indole] |
| 9.30 | 5.25 | CN1CCN(c2ncc([C@H]3c4[nH]c5ccc(Cl)cc5c4CCN3c3nc(C(F)(F)F)cc(C(F)(F)F)n3)cn2)CC1 [Compound 419, (1S)-2-[4,6-bis(trifluoromethyl)pyrimidin-2-yl]-6-chloro-1-[2-(4-methylpiperazin-1-yl)pyrimidin-5-yl]-2,3,4,9-tetrahydro-1H-pyrido[3,4-b]indole] |
| 9.70 | 5.23 | FC(F)(F)c1nc(N2CCc3c([nH]c4ccc(Cl)cc34)[C@@H]2c2ccc(N3CCOCC3)nc2)nc(C(F)(F)F)n1 [Compound 405, (1S)-2-[4,6-bis(trifluoromethyl)-1,3,5-triazin-2-yl]-6-chloro-1-[6-(morpholin-4-yl)pyridin-3-yl]-2,3,4,9-tetrahydro-1H-pyrido[3,4-b]indole] |
| 8.92 | 4.96 | FC(F)(F)c1ccnc(N2CCc3c([nH]c4ccc(Cl)cc34)[C@@H]2c2cnc(N3CCOCC3)nc2)n1 [Compound 408, (1S)-6-chloro-1-[2-(morpholin-4-yl)pyrimidin-5-yl]-2-[4-(trifluoromethyl)pyrimidin-2-yl]-2,3,4,9-tetrahydro-1H-pyrido[3,4-b]indole] |
| 9.52 | 4.85 | FC(F)(F)c1cc(C(F)(F)F)nc(N2CCc3c([nH]c4ccc(Cl)cc34)[C@@H]2c2cnc(N3CCOCC3)nc2)n1 [Compound 410, (1S)-2-[4,6-bis(trifluoromethyl)pyrimidin-2-yl]-6-chloro-1-[2-(morpholin-4-yl)pyrimidin-5-yl]-2,3,4,9-tetrahydro-1H-pyrido[3,4-b]indole] |
| 9.40 | 5.51 | CN1CCN(c2ncc([C@H]3c4[nH]c5ccc(Cl)cc5c4CCN3c3nc(C(F)(F)F)nc(C(F)(F)F)n3)cn2)CC1 [Compound 420, (1S)-2-[4,6-bis(trifluoromethyl)-1,3,5-triazin-2-yl]-6-chloro-1-[2-(4-methylpiperazin-1-yl)pyrimidin-5-yl]-2,3,4,9-tetrahydro-1H-pyrido[3,4-b]indole] |
